# Measured values published in patent publication US20240139280A1, “USE OF HIF-1-ALPHA INHIBITORS IN CANCER IMMUNOTHERAPY” (ONCOC4, INC., priority 2021, published 2024).
# How the values were obtained:
# [1] = system: E0771 tumor microenvironment; assay: Flow cytometry of dissociated E0771 tumors (tumor cells, myeloid cells, TILs); format: in vivo, C57BL/6 mice
# E0771 tumor = E0771 tumor growth in mice (incl. shRNA sublines, cell depletion); format: in vivo
# Method: FIGS. 3A-D show the therapeutic effects of echinomycin on tumor growth in immunodeficient and immunocompetent mice. FIG. 3A. Experimental design. Three murine tumor lines were tested: 4T1, E0771, or MC38. For each, immunodeficient and immunocompetent mice were inoculated (day 0), and treatment was initiated with control liposomes (vehicle) or echinomycin liposomes (LEM) on day 6, indicated by arrows in FIGS. 3B-3D. The kinetics of tumor growth were compared to deduce the role of adaptive immunity in the therapeutic effects of echinomycin. FIG. 3B. 4T1 cells (1×10^6) were transplanted into mammary fat pad of NSG and BALB/c mice, which received vehicle or echinomycin (0.15 mg/kg) (arrows). Mean tumor volumes±SEM are shown for one of two independent experiments (n=10/group). FIG. 3C. Kinetics of E0771 tumor growth. E0771 cells (0.7×10^6) were transplanted into mammary fat pad of NSG and C57BL/6 mice, which received vehicle or echinomycin (0.25 mg/kg) (arrows). Mean tumor volumes±SEM are shown for one of two independent experiments (n=5/group). FIG. 3D. Kinetics of MC38 tumor growth. MC38 cells (1×10^6) were transplanted subcutaneously into NSG and C57BL/6 mice, which received vehicle or echinomycin (0.15 mg/kg) (blue arrows). Mean tumor volumes±SEM are shown for one of two independent experiments (n=5/group).
# FIGS. 4A-D show the effects of pharmacological and/or genetic targeting of HIF-1α on E0771 tumor growth in immunodeficient or immunocompetent mice. FIG. 4A. Experimental design. Three sublines of E0771 were generated by lentiviral transduction: scrambled shRNA (sh^−Scr), or shRNA for the Hif1α (sh^−Hif1α) or Pdl1 (sh^−Pdl1) genes. For each subline, 0.5×10^6 cells were orthotopically transplanted into NSG or C57BL/6 mice (day 0), which received vehicle or echinomycin (0.25 mg/kg) starting day 6. FIG. 4B. Effects of Hif1α or Pdl1 knockdown on E0771 growth among immunodeficient or immunocompetent recipients. FIG. 4C. Effects of vehicle or echinomycin on sh^−Scr, sh^−Hif1α, or sh^−Pdl1 E0771 growth in immunocompetent C57BL/6 recipients. FIG. 4D. Effects of vehicle or echinomycin (arrows) on sh^−Scr, sh^−Hif1α, or sh^−Pdl1 E0771 growth in immunodeficient NSG recipients. Data shown are means+/−SEM (n=5/group) and are representative of 2 experiments.
# FIGS. 5A-D show at echinomycin potentiates the therapeutic effect of anti-CTLA-4 antibody. FIG. 5A. Experimental design. In 4T1, E0771, or MC38 syngeneic tumor models, the effects of echinomycin on tumor growth were tested in combination with anti-CTLA-4 therapy (9D9). Tumor growth kinetics in mice receiving vehicle, echinomycin, and anti-CTLA-4 (9D9) monotherapies, or anti-CTLA-4+anti-PD-1 (9D9+RMP1-14) are shown. Starting on day 6 after tumor cell inoculation, mice received vehicle or echinomycin and/or various mAbs. The mean tumor volumes±SEM are shown for each group. FIG. 5B. Effects of 9D9+echinomycin on 4T1 tumor growth. BALB/c mice received vehicle, liposomal echinomycin (LEM, 0.15 mg/kg) (blue arrows), 9D9 (0.2 mg/mouse/injection) (red arrows), or both (n=10/group). Data shown for one of three independent experiments. FIG. 5C. Effects of 9D9+echinomycin on syngeneic E0771 growth. E0771 cells (0.5×10^6) were orthotopically transplanted into the mammary fat pads of C57BL/6 mice. Mice received vehicle or echinomycin (0.25 mg/kg) and/or various mAbs (0.2 mg/mouse/injection) (red arrows). Representative data shown for one of three independent experiments (n=5/group). FIG. 5D. […]
compound,measurement,setting,value
"CSC1SC[C@H]2C(=O)N(C)[C@@H](C(C)C)C(=O)OC[C@@H](NC(=O)c3cnc4ccccc4n3)C(=O)N[C@@H](C)C(=O)N(C)[C@@H]1C(=O)N(C)[C@@H](C(C)C)C(=O)OC[C@@H](NC(=O)c1cnc3ccccc3n1)C(=O)N[C@@H](C)C(=O)N2C (stereo in doubt) [echinomycin, N,N′-(2,4,12,15,17,25-hexamethyl-11,24-bis(1-methylethyl)-27-(methylthio)-3,6,10,13,16,19,23,26-octaoxo-9,22-dioxa-28-thia-2,5,12,15,18,25-hexaazabicyclo(12.12.3)nonacosane-7,20-diyl)bis(2-quinoxalinecarboxamide)]",inhibition of PD-L1 on tumor cells in mice with conditional knockout of Hif1α in T cells,[1]; Hif1α conditional knockout in T lineages,preserved
same,CD3 TIL infiltration into hypoxic areas of the tumors,[1]; echinomycin-treated mice,increase in CD3 TIL infiltration into hypoxic areas
same,"E0771 tumor growth, combination study","E0771 tumor; C57BL/6, echinomycin 0.25 mg/kg, mAbs 0.2 mg/mouse/injection, vs vehicle",significant inhibition of tumor growth
same,sh-Scr E0771 tumor growth,"E0771 tumor; C57BL/6 compared to NSG recipients, echinomycin 0.25 mg/kg",more effectively inhibited
same,sh-Pdl1 E0771 tumor growth,"E0771 tumor; C57BL/6 or NSG recipients, echinomycin 0.25 mg/kg",did not further suppress
same,E0771 tumor growth,"E0771 tumor; immunocompetent C57BL/6, echinomycin 0.25 mg/kg",therapeutic effect on immune competent
same,sh-Hif1α E0771 tumor growth,"E0771 tumor; regardless of recipient strain (C57BL/6, NSG), echinomycin 0.25 mg/kg",did not inhibit
